Data reported in ChEMBL document CHEMBL3044958, “Synthesis, evaluation of 6,8-dibromo-2-aryl-2,3-dihydroquinolin-4(1H)-ones in MCF-7 (breast cancer) cell lines and their docking studies” (2012).

Legend:
Format in all cases: functional
MCF7 [1] = assay: Growth inhibition of Homo sapiens (human) MCF-7 cells after 48 hr by SRB assay; conditions: MCF7, 48 h
MCF7 [2] = assay: Growth inhibition of Homo sapiens (human) MCF-7 cells assessed as cell growth at 10 '-4 M after 48 hr by SRB assay; conditions: MCF7, 48 h, read-out: Activity
MCF7 [3] = assay: Growth inhibition of Homo sapiens (human) MCF-7 cells assessed as cell growth at 10 '-5 M after 48 hr by SRB assay; conditions: MCF7, 48 h, read-out: Activity
MCF7 [4] = assay: Growth inhibition of Homo sapiens (human) MCF-7 cells assessed as cell growth at 10 '-6 M after 48 hr by SRB assay; conditions: MCF7, 48 h, read-out: Activity
MCF7 [5] = assay: Growth inhibition of Homo sapiens (human) MCF-7 cells assessed as cell growth at 10 '-7 M after 48 hr by SRB assay; conditions: MCF7, 48 h, read-out: Activity
MCF7 [6] = assay: Cytotoxicity against Homo sapiens (human) MCF-7 cells after 48 hr by SRB assay; conditions: MCF7, 48 h
MCF7 [7] = assay: Growth inhibition of Homo sapiens (human) MCF-7 cells assessed as total cell growth after 48 hr by SRB assay

Row | Compound | GI50 (MCF7 [1]) | growth at 100 µM (MCF7 [2]) | growth at 10 µM (MCF7 [3]) | growth at 1 µM (MCF7 [4]) | growth at 0.1 µM (MCF7 [5]) | LC50 (concentration killing 50% of cells) (MCF7 [6]) | TGI (MCF7 [7])
1 | O=C1CC(c2ccc(Br)cc2)Nc2c(Br)cc(Br)cc21 (stereo unspecified) | 151 nM | -43% | 12.5% | 69.7% | 69.7% | > 100000 nM | 2600 nM
2 | COc1ccc(C2CC(=O)c3cc(Br)cc(Br)c3N2)cc1 (stereo unspecified) | > 100000 nM | 7.1% | 87.8% | 140% | 168% | > 100000 nM | > 100000 nM
3 | N#Cc1ccc(C2CC(=O)c3cc(Br)cc(Br)c3N2)cc1 (stereo unspecified) | < 100 nM | -58.5% | -5.1% | 8.2% | 43.1% | > 100000 nM | 126 nM
4 | O=C1CC(c2ccc(Cl)cc2)Nc2c(Br)cc(Br)cc21 (stereo unspecified) | 146 nM | -40% | 34.5% | 61.7% | 60.2% | > 100000 nM | 2870 nM
5 | COc1cccc2c1C(=O)c1c(O)c3c(c(O)c1C2=O)C[C@@](O)(C(=O)CO)C[C@@H]3O[C@H]1C[C@H](N)[C@H](O)[C@H](C)O1.Cl [DOXORUBICIN HYDROCHLORIDE] | < 100 nM | -33.5% | -23.7% | -13.9% | 53.5% | – | 183 nM
6 | O=C1CC(c2ccc(O)cc2)Nc2c(Br)cc(Br)cc21 (stereo unspecified) | < 100 nM | -45.3% | -2% | 9.6% | 3.7% | > 100000 nM | 151 nM
7 | CN(C)c1ccc(C2CC(=O)c3cc(Br)cc(Br)c3N2)cc1 (stereo unspecified) | > 100000 nM | 43% | 130% | 144% | 164% | > 100000 nM | > 100000 nM
8 | O=C1CC(c2ccc(F)cc2)Nc2c(Br)cc(Br)cc21 (stereo unspecified) | < 100 nM | -48.1% | -3.6% | 9.2% | 30.1% | > 100000 nM | 145 nM
9 | O=C1CC(c2ccc([N+](=O)[O-])cc2)Nc2c(Br)cc(Br)cc21 (stereo unspecified) | < 100 nM | -52.3% | -4.4% | 8.6% | 50.5% | > 100000 nM | 132 nM
10 | COc1cc(C2CC(=O)c3cc(Br)cc(Br)c3N2)cc(OC)c1OC (stereo unspecified) | > 100000 nM | 34.3% | 99.6% | 110% | 130% | > 100000 nM | > 100000 nM
11 | O=C1CC(c2cccc(O)c2)Nc2c(Br)cc(Br)cc21 (stereo unspecified) | > 100000 nM | 14.7% | 25.6% | 108% | 118% | > 100000 nM | > 100000 nM
